Results: article PMC5796017, “Enantiomeric Effect of D-Amino Acid Substitution on the Mechanism of Action of α-Helical Membrane-Active Peptides” (International Journal of Molecular Sciences, 2017)
Converted amounts (≈) assume the structure as drawn.

How the values were obtained:
S. aureus ATCC25923 = assay: Antimicrobial activity, microtiter dilution MIC; type: cell-based, Staphylococcus aureus; settings: G+; MH medium, 5 × 10^5 CFU/mL, 37 °C, 24 h, triplicate
Outline: (§1)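 Broth microdilution in Mueller–Hinton medium, inoculum 5 × 10^5 CFU/mL, serially diluted peptide, 24 h at 37 °C. MIC taken as lowest peptide concentration preventing growth; triplicate runs.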

[1] = Circular dichroism (CD) secondary structure; type: physicochemical
Outline: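 Peptide secondary structure was measured by circular dichroism on a Jasco J-810 CD spectrometer at 25 °C, in benign KP buffer to mimic a hydrophilic environment and in 50% 2,2,2-trifluoroethanol (benign buffer: TFE = 1:1, vol/vol) to mimic a membrane-like hydrophobic environment. Mean residue molar ellipticity at 222 nm, [θ]222 (degree·cm^2·dmol^−1), calculated as [θ] = θ/10lCMn, gave relative helical content.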

E. coli ATCC25922 = assay: Antimicrobial activity, microtiter dilution MIC; type: cell-based, Escherichia coli; settings: G−; MH medium, 5 × 10^5 CFU/mL, 37 °C, 24 h, triplicate
Outline: as §1

[2] = RP-HPLC retention time as relative hydrophobicity; type: physicochemical; settings: 25 °C, used by the paper as measure of relative hydrophobicity
Experimental: The RP-HPLC retention time has been widely used to represent the relative hydrophobicity of peptides in many studies.The relative hydrophobicity of the peptides was determined by the RP-HPLC retention times at 25 °C. The change in hydrophobicity of the peptides caused by D-amino acid substitutions was mainly due to the disruption of the helical structure.

HeLa cells = assay: AFM imaging; type: cell-based, human; settings: treatment 5 min, DMEM, AAC mode
Experimental: The mechanism of the interaction of the peptides with the different kinds of membranes was further analyzed by AFM. E. coli and HeLa cells were imaged to observe the morphologic change of cell membranes with, and without, treatment with V13K. […] Similarly, the surface of untreated cells fixed with, or without, 4% paraformaldehyde were intact and the membrane surface appeared quite smooth (Figure 4E–H).
The AFM imaging of E. coli ATCC25922 and HeLa cells before, and after, incubation with V13K were performed using an AFM 5500 (Agilent Technologies, Chandler, AZ, USA). The AFM imaging of E. coli was used on the contact mode and the cantilever was used as the B-tip (DNP, B-tip, Bruker AFM probes, California, CA, USA). The AFM imaging of HeLa was used on the AAC mode and the cantilever was used as the D-tip (DNP, D-tip, Bruker AFM probes, Camarillo, California, CA, USA). A single bacterial colony was picked and cultured in Mueller–Hinton (MH) medium for 18–20 h. […] The E. coli and peptide-treated bacteria samples (after treatment for 30 min) were applied onto mica and imaged in air using the contact mode and recorded with 512 × 512 pixels. The images of HeLa cells and peptide-treated HeLa cells (after treatment for 5 min) were obtained in Dulbecco’s Modified Eagle’s medium (DMEM) using the Acoustic AC (AAC) mode and recorded with 512 × 512 pixels. […]

MIA PaCa-2 = assay: MTT cell viability assay; type: cell-based, human; settings: MIA PaCa-2, MTT, 24 h; mean ± SEM of three independent determinations
Outline: (§2)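 Cells seeded at 5000 per well in DMEM/10% FBS, exposed to peptides for 24 h at 37 °C. Viability by MTT, formazan dissolved in DMSO, absorbance at 492 nm. IC50 is the concentration giving 50% viability loss; triplicate.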

HeLa = assay: MTT cell viability assay; type: cell-based, human; settings: 24 h, mean ± SEM of three independent determinations
Outline: as §2

BxPC-3 = assay: MTT cell viability assay; type: cell-based, human; settings: BxPC-3, MTT, 24 h; mean ± SEM of three independent determinations
Outline: as §2

HPAC = assay: MTT cell viability assay; type: cell-based, human; settings: 24 h, mean ± SEM of three independent determinations
Outline: as §2

S. epidermidis ATCC12228 = assay: Antimicrobial activity, microtiter dilution MIC; type: cell-based, Staphylococcus epidermidis; settings: G+; MH medium, 5 × 10^5 CFU/mL, 37 °C, 24 h, triplicate
Outline: as §1

CC[C@H](C)[C@H](NC(=O)[C@H](C)NC(=O)[C@H](CCCCN)NC(=O)[C@H](CC(C)C)NC(=O)[C@H](C)NC(=O)[C@@H](NC(=O)[C@H](Cc1cnc[nH]1)NC(=O)[C@H](CC(C)C)NC(=O)[C@@H](NC(=O)[C@@H](NC(=O)[C@H](CCCCN)NC(=O)[C@H](CCCCN)NC(=O)[C@H](C)NC(=O)[C@H](CO)NC(=O)[C@H](CCCCN)NC(=O)[C@H](Cc1ccccc1)NC(=O)[C@@H](NC(=O)[C@H](CCCCN)NC(=O)[C@H](CC(C)C)NC(=O)[C@H](Cc1ccccc1)NC(=O)[C@H](CO)NC(=O)[C@H](CCCCN)NC(=O)[C@H](Cc1c[nH]c2ccccc12)NC(=O)[C@H](CCCCN)NC(C)=O)[C@@H](C)O)[C@@H](C)O)C(C)C)[C@@H](C)O)C(=O)N[C@@H](CO)C(=O)N[C@@H](CO)C(N)=O [Peptide V13K]
MIC (S. aureus ATCC25923): 32 µM (≈ 95.7 µg/mL)
[θ]222, benign ([1]; CD, KP buffer (100 mM KCl, 50 mM KH2PO4/K2HPO4, pH 7.4), 75 μM peptide, 25 °C): −5617.46 degree·cm^2·dmol^−1
[θ]222, 50% TFE ([1]; CD, KP buffer with 50% TFE, 75 μM peptide, 25 °C): −50,520.3 degree·cm^2·dmol^−1
α-Helix (%), 50% TFE (relative helicity) ([1]; KP buffer with 50% TFE, relative to molar ellipticity of V13K in 50% TFE): 100%
α-Helix (%), benign ([1]; KP buffer, relative to molar ellipticity of V13K in 50% TFE): 11.1%
MIC (E. coli ATCC25922): 8 µM (≈ 23.9 µg/mL)
tR (RP-HPLC retention time), relative hydrophobicity [2]: 44.48 min
Morphology of HeLa cell membrane by AFM (HeLa cells): pores and cavities were visible on the surface of the cells
IC50 (MIA PaCa-2): 24.8 ± 0.6 µM
IC50 (HeLa): 16 ± 0.5 µM
IC50 (BxPC-3): 12.5 ± 1.2 µM
IC50 (HPAC): 7.6 ± 4 µM
MIC (S. epidermidis ATCC12228): 4 µM (≈ 12 µg/mL)
